Measurements reported in patent US4202892A, “Biocidal methyladamantyl hydrazines and pharmaceutical compositions containing them” (Teva Pharmaceutical Industries, Ltd., priority 1977, dated 1980).
Values joined by “and” are separate entries in the source; they are usually repeats but may differ in a detail not shown here. Equal values may be shown once. Where a name gives a salt, the structure may show the parent alone.

Columns and labels:
L. tropica promastigotes = L. tropica promastigotes in Mc Coy's medium in vitro at 27° C.; type: cell-based
Experimental: (§1) A. Scoring of drug activity:
(§2) b. promastigotes in Mc Coy's medium in vitro at 27° C.
+++=no viable parasites after 24 hours
++=no viable parasites after 48 hours
+=no viable parasites after 72 hours
±=no viable parasites after 96 hours
-=viable parasites after 120 hours.

L. tropica amastigotes = L. tropica amastigotes in peritoneal exudate cells in Mc Coy's medium in vitro at 37° C.; type: cell-based
Experimental: as §1
(§3) a. amastigotes in peritoneal exudate cells in Mc Coy's medium in vitro at 37° C.
+++=clearance of all parasites in 24 hrs
++=clearance of all parasites in 48 hrs
+=clearance of all parasites in 72 hrs
±=partial clearance of parasites in 72 hours or more
-=no activity against parasites.

Trypanosoma = Trypanosoma in RPMI medium in vitro at 37° C.; type: cell-based; settings: for Trypanosoma in vitro, activity score: RPMI medium, 37° C.; for active against Trypanosoma: summary
Experimental: Trypanosoma in RPMI medium in vitro at 37° C. Scoring as in b.

Leishmania = test: Anti Leishmania tests (amastigotes and promastigotes), summary; type: cell-based, L. tropica
Experimental: as §1, §3, §2

Candida albicans = test: Antimycotic activity (human), growth on Sabouraud dextrose agar; type: cell-based; set-up: key to the marks not given beside the values
From the text: Control (full growth): ++++

[1] = test system: 4 mycoplasma (M. gallisepticum, capricolum, M. hominis, A. laidlawii); test: organism not typed; type: cell-based; settings: read-out: 50% inhibition of growth in liquid medium, concentration
[2] = Toxic limit in the HSV replication test; type: cell-based, Green monkey; settings: monkey, bsc-1 cells; read-out: T.L. Toxic Limit (highest concentration of compound which is completely not toxic)
From the text: BSC-1 (Green monkey Kidney)
*T.L. The highest concentration of compound which is completely not toxic

HSV-1 (Herpes Simplex) = test: Inhibition test on HSV replication; type: cell-based; settings: Human alphaherpesvirus 1, BSC-1 cells, 10 PFU/cell; for inhibition at 25 µg/mL: 25 μg/ml; for inhibition at 50 µg/mL: 50 μg/ml; for inhibition at 100 µg/mL: 100 μg/ml
From the text: |INHIBITION TEST ON HSV REPLICATION |Cells |BSC-1 (Green monkey Kidney) |Virus |HSV-1 (Herpes Simplex) |Inoculum |10 PFU/cell |Medium |DMEM + 10% C.S. | Herpes | J. Levitt & Y. Becker | Virology 31, 129-134 (1967) | **% Inhibition of control infected for some time with same virus PFV with | no inhibition.

[3] = test system: stereotyped behaviour (sniffing, biting, repetitive head movement); test: Stereotyped behaviour in mice; type: in vivo, Male ICR albino mice; set-up: stereotyped behaviour score / Total Score (stereotyped behaviour) / Mean Score (stereotyped behaviour): scale not given here; settings: for Total Score (stereotyped behaviour): 0-240 min; for Total Score (stereotyped behaviour) / stereotyped behaviour score / Mean Score (stereotyped behaviour): 50 mg/kg i.p.; for Total Score (stereotyped behaviour) / stereotyped behaviour score: one line per mouse, in order Mouse 1 to Mouse 4; for Mean Score (stereotyped behaviour): mean of 4 mice
Experimental: Male ICR albino mice weighing 25-30 g were put in cages with a metal grid floor, 4 in each cage. Drugs were injected intraperitoneally and stereotyped behaviour (sniffing, biting, repetitive head movement) was evaluated every 30 min.

[4] = test system: haloperidol-induced catalepsy; test: Antiparkinson activity: anticataleptic effect in rats (haloperidol catalepsy); type: in vivo, Male Charles River albino rats; settings: individual rats, 80 mg/kg i.p., one line per rat
Experimental: (§4) Male Charles River albino rats, weighing 200-250 g, were used. Catalepsy was produced by haloperidol, 5 mg/kg i.p. The animals were placed with their front paws on a horizontal bar, about 10 cm above the ground, and animals were considered cataleptic if not changing posture for at least 30 sec. Cataleptic animals were injected l.p. with one of the drugs at a dose of 40-80 mg/kg. Catalepsy was estimated again at the intervals indicated.
as §4, with “rats, wighing” for “rats, weighing”, “injected i.p.” for “injected l.p.”, “mg/kg. catalepsy” for “mg/kg. Catalepsy”

[5] = test system: Trichophyton mentagrophytes; test: Antimycotic activity (human), growth on Sabouraud dextrose agar; set-up: key to the marks not given beside the values; settings: 10 μg/ml
Trichophyton rubrum = test: as above; set-up: key to the marks not given beside the values; settings: 10 μg/ml

## CNNCC12CC3CC(CC(C3)C1)C2 [Example 1, 1-(Adamant-1'-ylmethyl)-2-methylhydrazine hydrochloride]
L. tropica promastigotes; 10 μg
  Leishmania promastigote, activity score: - (viable parasites after 120 hours.)
L. tropica promastigotes; 100 μg
  Leishmania promastigote, activity score: +++ (no viable parasites after 24 hours)
L. tropica amastigotes; 10 μg
  Leishmania amastigote, activity score: ± (partial clearance of parasites in 72 hours or more)
L. tropica amastigotes; 100 μg
  Leishmania amastigote, activity score: ± (partial clearance of parasites in 72 hours or more)
Trypanosoma; 10 μg
  Trypanosoma in vitro, activity score: ± (no viable parasites after 96 hours)
Trypanosoma; 100 μg
  Trypanosoma in vitro, activity score: +++ (no viable parasites after 24 hours)
Trypanosoma
  active against Trypanosoma: active
Leishmania
  active against Leishmania: active

## c1ccc(CNNCC23CC4CC(CC(C4)C2)C3)cc1 [Example 3, 1-(Adamant-1'-ylmethyl)-2-benzylhydrazine hydrochloride]
Candida albicans; 10 μg/ml
  growth of C. albicans: ++++
Candida albicans; 50 μg/ml
  growth of C. albicans: ++++
Candida albicans; 100 μg/ml
  growth of C. albicans: ++++
[1]
  IC50: 5 to 30 µg/mL

## C1CCN(NCC23CC4CC(CC(C4)C2)C3)C1 [Example 7, 1-(Adamant-1'-ylmethylamino)pyrrolidine hydrochloride]
[2]
  MNTC: 50 µg/mL
HSV-1 (Herpes Simplex)
  inhibition at 25 µg/mL: 72.5%
  inhibition at 50 µg/mL: 92%
  inhibition at 100 µg/mL: 99.9%
HSV-1 (Herpes Simplex); 75 μg/ml
  inhibition at 75 µg/mL: 98%
[3]; hydrochloride, 50 mg/kg
  Total Score (stereotyped behaviour): 17 and 11 and 6 and 3
[3]; 0 min
  stereotyped behaviour score: 0
[3]; 30 min, hydrochloride, 50 mg/kg
  stereotyped behaviour score: 2 and 0 (3×)
[3]; 45 min, hydrochloride, 50 mg/kg
  stereotyped behaviour score: 2 and 0 (2×) and 1
[3]; 60 min, hydrochloride, 50 mg/kg
  stereotyped behaviour score: 2 and 0 (3×)
[3]; 90 min, hydrochloride, 50 mg/kg
  stereotyped behaviour score: 2 (2×) and 0 (2×)
[3]; 120 min, hydrochloride, 50 mg/kg
  stereotyped behaviour score: 2 (2×) and 0 (2×)
[3]; 135 min, hydrochloride, 50 mg/kg
  stereotyped behaviour score: 2 (2×) and 0 (2×)
[3]; 150 min, hydrochloride, 50 mg/kg
  stereotyped behaviour score: 2 (2×) and 1 and 0
[3]; 180 min, hydrochloride, 50 mg/kg
  stereotyped behaviour score: 1 (3×) and 0
[3]; 210 min, hydrochloride, 50 mg/kg
  stereotyped behaviour score: 1 (2×) and 2 (2×)
[3]; 240 min
  stereotyped behaviour score: 1
[3]
  Mean Score (stereotyped behaviour): 9.25
[3]; summary of the CNS tests
  found to be active: active
[1]
  IC50: 5 to 30 µg/mL
[4]; in order rat 1 to rat 5, hydrochloride
  anticataleptic effect: 1/4 and 0/4 (3×) and 3/4

## C1CCN(NCC23CC4CC(CC(C4)C2)C3)CC1 [Example 8, 1-(Adamant-1'-ylmethylamino)piperidine hydrochloride]
Candida albicans; 10 μg/ml
  growth of C. albicans: ++++
Candida albicans; 50 μg/ml
  growth of C. albicans: ++++
Candida albicans; 100 μg/ml
  growth of C. albicans: ++++
[5]
  growth of T. mentagrophytes: ++++
Trichophyton rubrum
  growth of T. rubrum: ++++
[1]
  IC50: 5 to 30 µg/mL

## NNCC12CC3CC(CC(C3)C1)C2 [Example 14, (Adamant-1-ylmethyl)hydrazine hydrochloride]
L. tropica amastigotes; 10 μg
  Leishmania amastigote, activity score: ± (partial clearance of parasites in 72 hours or more)
L. tropica amastigotes; 100 μg
  Leishmania amastigote, activity score: ++ (clearance of all parasites in 48 hrs)
Trypanosoma; 10 μg
  Trypanosoma in vitro, activity score: +++ (no viable parasites after 24 hours)
Trypanosoma; 100 μg
  Trypanosoma in vitro, activity score: +++ (no viable parasites after 24 hours)
Trypanosoma
  active against Trypanosoma: active
Leishmania
  active against Leishmania: active

## CN(N)CC12CC3CC(CC(C3)C1)C2 [Example 15, 1-Methyl-1-(adamant-1'-ylmethyl)hydrazine hydrochloride hydrate]
L. tropica promastigotes; 10 μg
  Leishmania promastigote, activity score: - (viable parasites after 120 hours.)
L. tropica promastigotes; 100 μg
  Leishmania promastigote, activity score: +++ (no viable parasites after 24 hours)
Leishmania
  active against Leishmania: active

## CN(N)CC1C2CC3CC(C2)CC1C3 (stereo not drawn) [Example 16, 1-Methyl-1-(adamant-2'-ylmethyl)hydrazine hydrochloride]
Candida albicans; 10 μg/ml
  growth of C. albicans: ++++
Candida albicans; 50 μg/ml
  growth of C. albicans: ++++

## c1ccc(CCNNCC23CC4CC(CC(C4)C2)C3)cc1 [Example 25, 1-(Adamant-1'-ylmethyl)-2-phenethylhydrazine dihydrate]
[1]
  IC50: 5 to 30 µg/mL

## C1CCN(NCC2C3CC4CC(C3)CC2C4)C1 (stereo not drawn) [Example 31, 1-(Adamant-2'-ylmethylamino)pyrrolidine hydrochloride]
HSV-1 (Herpes Simplex)
  inhibition at 25 µg/mL: 51%
  inhibition at 50 µg/mL: 91%
  inhibition at 100 µg/mL: 97%

## CC(C)N(N)CC12CC3CC(CC(C3)C1)C2 [Example 38, 1-(Adamant-1'-ylmethyl)-1-isopropylhydrazine hydrochloride]
Candida albicans; 10 μg/ml
  growth of C. albicans: ++++
Candida albicans; 50 μg/ml
  growth of C. albicans: ++++
Candida albicans; 100 μg/ml
  growth of C. albicans: ++++
[5]
  growth of T. mentagrophytes: ++++
Trichophyton rubrum
  growth of T. rubrum: ++++
[1]
  IC50: 5 to 30 µg/mL

## N=C(N)c1ccc(OCCCCCOc2ccc(C(=N)N)cc2)cc1 [Pentamidine, reference compound]
L. tropica promastigotes; 10 μg
  Leishmania promastigote, activity score: +++ (no viable parasites after 24 hours)
L. tropica promastigotes; 100 μg
  Leishmania promastigote, activity score: +++ (no viable parasites after 24 hours)
Trypanosoma; 10 μg
  Trypanosoma in vitro, activity score: - (viable parasites after 120 hours.)
Trypanosoma; 100 μg
  Trypanosoma in vitro, activity score: ++ (no viable parasites after 48 hours)

## NC12CC3CC(CC(C3)C1)C2 [Symmetrel, reference compound]
[3]; 50 mg/kg
  Total Score (stereotyped behaviour): 17 (3×) and 13
[3]; 0 min
  stereotyped behaviour score: 0
[3]; 30 min
  stereotyped behaviour score: 1
[3]; 45 min
  stereotyped behaviour score: 1
[3]; 60 min, 50 mg/kg
  stereotyped behaviour score: 2 (2×) and 1 (2×)
[3]; 90 min, 50 mg/kg
  stereotyped behaviour score: 1 (3×) and 2
[3]; 120 min
  stereotyped behaviour score: 2
[3]; 135 min
  stereotyped behaviour score: 2
[3]; 150 min
  stereotyped behaviour score: 2
[3]; 180 min
  stereotyped behaviour score: 2
[3]; 210 min, 50 mg/kg
  stereotyped behaviour score: 2 (3×) and 1
[3]; 240 min, 50 mg/kg
  stereotyped behaviour score: 2 (3×) and 0
[3]
  Mean Score (stereotyped behaviour): 16
[4]; in order rat 1 to rat 5
  anticataleptic effect: 0/4 and 2/4 and 3/4 (3×)
